From ChEMBL document CHEMBL1806463, “Synthesis, biological evaluation and docking studies of octane-carboxamide based renin inhibitors with extended segments toward S3' site of renin” (Bioorg Med Chem, 2011) come the findings set out here.

The target in the first assay is T1, Renin (Homo sapiens) (UniProt P00797).
T1 sequence (whole entry): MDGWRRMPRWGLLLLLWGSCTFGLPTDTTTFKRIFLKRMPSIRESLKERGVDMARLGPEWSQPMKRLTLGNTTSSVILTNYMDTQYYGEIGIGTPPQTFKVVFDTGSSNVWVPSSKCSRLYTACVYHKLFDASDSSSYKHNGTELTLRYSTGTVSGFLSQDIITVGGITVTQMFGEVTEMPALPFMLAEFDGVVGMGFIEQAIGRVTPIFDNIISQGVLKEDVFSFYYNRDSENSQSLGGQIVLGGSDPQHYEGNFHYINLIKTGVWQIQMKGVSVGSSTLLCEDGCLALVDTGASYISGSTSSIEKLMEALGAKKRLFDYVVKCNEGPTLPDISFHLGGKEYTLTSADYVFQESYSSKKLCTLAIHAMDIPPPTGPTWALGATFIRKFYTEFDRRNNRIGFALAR
Put plainly: Ratio IC50 for aliskiren to compound for renin.
In the case of `COCCCOc1cc(C[C@@H](C[C@H](N)[C@@H](O)C[C@H](C(=O)NCC(C)(C)Cn2ccnn2)C(C)C)C(C)C)ccc1OC`, the Ratio IC50 worked out at 10.

The target in a further assay is T2, Renin (Homo sapiens, UniProt P00797).
T2 sequence (P00797 whole entry): T1 sequence (whole entry)
Briefly: Inhibition of renin measured every 30 secs for 15 mins by fluorimetric analysis.
Regarding `CCCC(=O)NCC(C)(C)CNC(=O)[C@@H](C[C@H](O)[C@@H](N)C[C@H](Cc1ccc(OC)c(OCCCOC)c1)C(C)C)C(C)C`, the IC50 is 1.12 nM. On the same count and under the same terms, next, `COCCCOc1cc(C[C@@H](C[C@H](N)[C@@H](O)C[C@H](C(=O)NCC(C)(C)CNS(N)(=O)=O)C(C)C)C(C)C)ccc1OC`: 0.79 nM. `CCCCCC(=O)NCC(C)(C)CNC(=O)[C@@H](C[C@H](O)[C@@H](N)C[C@H](Cc1ccc(OC)c(OCCCOC)c1)C(C)C)C(C)C` had an IC50 of 0.83 nM.

For `COCCCOc1cc(C[C@@H](C[C@H](N)[C@@H](O)C[C@H](C(=O)NCC(C)(C)CNC(=O)c2ccccc2)C(C)C)C(C)C)ccc1OC`, half-maximal inhibition (IC50) required 1.02 nM.

`COCCCOc1cc(C[C@@H](C[C@H](N)[C@@H](O)C[C@H](C(=O)NCC(C)(C)CNC(=O)C(F)(F)F)C(C)C)C(C)C)ccc1OC` had an IC50 of 4.85 nM. Same read-out and setting: then `COCCCOc1cc(C[C@@H](C[C@H](N)[C@@H](O)C[C@H](C(=O)NCC(C)(C)CNC(=O)C(C)(C)C)C(C)C)C(C)C)ccc1OC`, with 4.13 nM. Same read-out and setting: next, `COCCCOc1cc(C[C@@H](C[C@H](N)[C@@H](O)C[C@H](C(=O)NCC(C)(C)CN)C(C)C)C(C)C)ccc1OC`: 2.88 nM. On the same count and under the same terms, then `COCCCOc1cc(C[C@@H](C[C@H](N)[C@@H](O)C[C@H](C(=O)NCC(C)(C)CNC(=O)N(C)C)C(C)C)C(C)C)ccc1OC`, with 0.36 nM; and `COCCCOc1cc(C[C@@H](C[C@H](N)[C@@H](O)C[C@H](C(=O)NCC(C)(C)CNS(C)(=O)=O)C(C)C)C(C)C)ccc1OC`, with 4.23 nM; and `COCCCOc1cc(C[C@@H](C[C@H](N)[C@@H](O)C[C@H](C(=O)NCC(C)(C)CNC(=O)c2ccc(OC)cc2)C(C)C)C(C)C)ccc1OC`, with 3.84 nM. Regarding `CCC(=O)NCC(C)(C)CNC(=O)[C@@H](C[C@H](O)[C@@H](N)C[C@H](Cc1ccc(OC)c(OCCCOC)c1)C(C)C)C(C)C`, half-maximal inhibition (IC50) was put at 1.08 nM. Same read-out and setting: then `COCCCOc1cc(C[C@@H](C[C@H](N)[C@@H](O)C[C@H](C(=O)NCC(C)(C)CNC(=O)Cc2ccccc2)C(C)C)C(C)C)ccc1OC`, with 1.64 nM; and `CCOC(=O)NCC(C)(C)CNC(=O)[C@@H](C[C@H](O)[C@@H](N)C[C@H](Cc1ccc(OC)c(OCCCOC)c1)C(C)C)C(C)C`, with 0.81 nM; and `COCCCOc1cc(C[C@@H](C[C@H](N)[C@@H](O)C[C@H](C(=O)NCC(C)(C)CNS(=O)(=O)c2ccc(C)cc2)C(C)C)C(C)C)ccc1OC`, with 1.15 nM.

With `COCCCOc1cc(C[C@@H](C[C@H](N)[C@@H](O)C[C@H](C(=O)NCC(C)(C)CNC(=O)CC(C)C)C(C)C)C(C)C)ccc1OC`, inhibition was half-maximal at 1.48 nM (IC50).

`COCCCOc1cc(C[C@@H](C[C@H](N)[C@@H](O)C[C@H](C(=O)NCC(C)(C)Cn2ccnn2)C(C)C)C(C)C)ccc1OC` came in with an IC50 of 0.2 nM.

The molecule `CCS(=O)(=O)NCC(C)(C)CNC(=O)[C@@H](C[C@H](O)[C@@H](N)C[C@H](Cc1ccc(OC)c(OCCCOC)c1)C(C)C)C(C)C` came in with an IC50 of 0.91 nM.

By IC50 is commonly meant the concentration at which inhibition is half-maximal. A low value points to greater potency.
